Results: patent US20240165282A1, “CONFORMATIONAL CONSTRAINED SOMATOSTATIN RECEPTOR 3 PEPTIDE LIGANDS AND THEIR CONJUGATES AND USES THEREOF” (STARGET PHARMA LTD., priority 2021, published 2024)
*1 amine or outer side, *2 acyl side, *3 side chain or, on linkers, in order; H or OH if unused. Where a SMILES comes first, the peptide text is derived from it. Bridges are numbered along the chain shown (N, C = ends). Where no end group is shown, it is not given here. [ ]: non-standard residue; d: D form. N(2-mercaptoethyl)Gly = O=C(CN(CCS[*:3])[*:1])[*:2]

Assays:
SSTR3 [1] = target: T1, SSTR3 (Homo sapiens, UniProt P32745); assay: β-Arrestin mediated receptor internalization (PathHunter), transfected CHO cells; format: cell-based; design: host or cells: CHO cells
Protocol: The assays were performed utilizing the PathHunter beta-arrestin enzyme fragment complementation (EFC) technology by Eurofins (CA, USA).
Cell Handling: 1. PathHunter cell lines were expanded from freezer stocks according to standard procedures. 2. Cells were seeded in a total volume of 20 μL into white walled, 384-well microplates and incubated at 37° C. for the appropriate time prior to testing. Agonist Format: 1. For agonist determination, cells were incubated with sample to induce response. 2. Intermediate dilution of sample stocks was performed to generate 5× sample in assay buffer. 3. 5 μL of 5× sample was added to cells and incubated at 37° C. or room temperature for 90 or 180 minutes. Final assay vehicle concentration was 1%. […] Microplates were read following signal generation with a PerkinElmer Envision™ instrument for chemiluminescent signal detection. Data Analysi: Compound activity was analyzed using CBIS data analysis suite (ChemInnovation, CA). […] For agonist mode assays, percentage activity was calculated using the following formula: % Activity=100%×(mean RLU of test sample−mean RLU of vehicle control)/(mean MAX control ligand−mean RLU of vehicle control). […] For antagonist mode assays, percentage inhibition was calculated using the following formula: % Inhibition =100%×(1−(mean RLU of test sample−mean RLU of vehicle control)/(mean RLU of EC80 control−mean RLU of vehicle control)). […]

SSTR3 [2] = target: T1, SSTR3; assay: Radioligand binding, displacement of 125I-Tyr11-SRIF-14; design: host or cells: CHO (Chinese Hamster Ovary) cells, membrane preparation; conditions: for affinity and selectivity to SSTR3 (in words): binding data; for Hill coefficient (nH) / Ki / IC50: hSSTR-3; for Ki: Cheng and Prusoff, read-out: Ki; for IC50: read-out: IC50
In short: (§1)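 Assays ran at 25 °C in 25 mM HEPES pH 7.4 with 5 mM MgCl2, 1 mM CaCl2, 0.1% BSA and 1% DMSO. Filter-bound radioactivity gave IC50 by nonlinear least-squares regression.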

SSTR2 = SSTR2 (Homo sapiens, UniProt P30874); assay: as above; design: host or cells: CHO (Chinese Hamster Ovary) cells, membrane preparation; conditions: hSSTR-2; for IC50: read-out: IC50
In short: as §1

SSTR1 = SSTR1 (Homo sapiens, UniProt P30872); assay: as above; design: host or cells: CHO (Chinese Hamster Ovary) cells, membrane preparation; conditions: hSSTR-1; for IC50: read-out: IC50
In short: as §1

GH release = assay: L-arginine induced GH release in rats; format: in vivo, Wistar rats; conditions: S.C. 100-1000 microgram/kg, L-arginine stimulation
Protocol: (§2) In vivo determination of the pharmacodynamic properties of SSTR3 analogs was carried out in rats, according to known procedures (Afargan M. et al., 2001, Pless J. et al 1986).
Inhibition of GH release as a result of peptide administration was measured in Wistar male rats.
(§3) Adult male Wistar rats weighing 200-220 g, were maintained on a constant light-dark cycle (light from 8:00 to 20:00 h), temperature (21±3° C.), and relative humidity (55±10%). Laboratory chow and tap water were available ad libitum. All animals in the study were fasted overnight, animals were placed in cages with metal mesh to prevent coprophagia with free access to water. On the day of the experiment, rats were anesthetized with Nembutal (IP, 60 mg/kg). Ten minutes after anesthesia, drugs were administrated S.C. at 100-1000 microgram/kg dose. At 10 minutes after drugs administration the stimulation of GH and glucagon release were carried out by i.v. bolus administration of 0.5 g/kg L-arginine, stimulation of insulin release was carried out in separate animal groups that received i.v. bolus of 0.5 g/kg of glucose. Terminal blood samples in EDTA were collected at 5 minutes after stimulation. Blood samples were and centrifuged immediately. Plasma was separated and kept frozen at −20° C. until assayed.
Rat growth hormone (rGH), glucagon and insulin levels were determined by commercial ELISA kits using the Millipore ELISA kits (Billerica, MA, USA). The ELISA kit for rat plasma GH, Millipore, Cat. No. EZRMGH-45K was performed according to the validated detection method of colorimetric sandwich ELISA protocol (Supriya S. et al., 2013). The ELISA kit for rat plasma insulin, Millipore Cat. No. MMEZRMI13K (Merck) was performed according to the validated detection method of fluorescent colorimetric protocol (Xu, P.Z. et al., 2012). […]
(§4) Data analysis of rat plasma GH, glucagon and insulin levels was evaluated by the averaged plasma hormones levels of each group. […] Results are expressed as the mean±SEM.

hSSTR-4 = target: T2, hSSTR-4 (Homo sapiens, UniProt P31391); assay: Radioligand binding, displacement of 125I-Tyr11-SRIF-14; conditions: hSSTR-4; for IC50: read-out: IC50
T2 construct: host or cells: Chem-1 (Rat ChemiSCREEN) cells, membrane preparation
In short: as §1

SSTR5 = SSTR5 (Homo sapiens, UniProt P35346); assay: as above; design: host or cells: Chem-1 (Rat ChemiSCREEN) cells, membrane preparation; conditions: hSSTR-5; for IC50: read-out: IC50
In short: as §1

insulin release = assay: Glucose induced insulin release in rats; format: in vivo, Wistar rats; conditions: S.C. 100-1000 microgram/kg, glucose stimulation
Protocol: as §2, §3
Rat growth hormone (rGH), glucagon and insulin levels were determined by commercial ELISA kits using the Millipore ELISA kits (Billerica, MA, USA). The ELISA kit for rat plasma GH, Millipore, Cat. No. EZRMGH-45K was performed according to the validated detection method of colorimetric sandwich ELISA protocol (Supriya S. et al., 2013). The ELISA kit for rat plasma insulin, Millipore Cat. No. MMEZRMI13K (Merck) was performed according to the validated detection method of fluorescent colorimetric protocol (Xu, P.Z. et al., 2012). The ELISA kit for rat plasma glucagon, Millipore, Cat. No. EZGLU-35 was performed according to the validated detection method of chemiluminescent sandwich ELISA protocol (Soyeon Y. et al., 2021).
as §4

[3] = Physicochemical studies of surface activity; conditions: nonspecific binding
[4] = design: species or system mice; conditions: mouse, in vivo, iv
Protocol: As described in Example 1 above, the successful substitution of the arginine with lysine which preserved the high affinity selectivity of SEQ ID NO: 2 to SSTR-3 (as depicted in table 3) can improve this analog as a better candidate for radioligand therapy and diagnostic. SEQ ID NO: 4 and SEQ ID NO: 10 are the gallium labeled analogs of SEQ ID NO: 1 and SEQ ID NO: 2 respectively. Following their radiolabeling the radioligand were injected to anesthetized naïve mice by intravenous administration. The mice were subjected to PET-CT imaging aimed to assess the disposition profiles of the radioligands.

[5] = Cheng and Prusoff, read-out: Ki

Chain of SSTR5 (P35346 whole entry): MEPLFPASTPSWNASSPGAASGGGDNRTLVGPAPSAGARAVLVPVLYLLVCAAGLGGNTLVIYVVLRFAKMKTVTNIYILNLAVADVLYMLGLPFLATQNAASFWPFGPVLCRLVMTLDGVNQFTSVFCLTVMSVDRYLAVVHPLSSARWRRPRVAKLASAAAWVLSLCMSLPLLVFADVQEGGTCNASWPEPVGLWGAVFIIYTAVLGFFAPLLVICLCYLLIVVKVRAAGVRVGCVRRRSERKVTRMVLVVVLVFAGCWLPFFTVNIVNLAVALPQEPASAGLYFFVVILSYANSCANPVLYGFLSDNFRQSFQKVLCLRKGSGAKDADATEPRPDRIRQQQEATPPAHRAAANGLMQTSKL
Chain of SSTR1 (P30872 whole entry): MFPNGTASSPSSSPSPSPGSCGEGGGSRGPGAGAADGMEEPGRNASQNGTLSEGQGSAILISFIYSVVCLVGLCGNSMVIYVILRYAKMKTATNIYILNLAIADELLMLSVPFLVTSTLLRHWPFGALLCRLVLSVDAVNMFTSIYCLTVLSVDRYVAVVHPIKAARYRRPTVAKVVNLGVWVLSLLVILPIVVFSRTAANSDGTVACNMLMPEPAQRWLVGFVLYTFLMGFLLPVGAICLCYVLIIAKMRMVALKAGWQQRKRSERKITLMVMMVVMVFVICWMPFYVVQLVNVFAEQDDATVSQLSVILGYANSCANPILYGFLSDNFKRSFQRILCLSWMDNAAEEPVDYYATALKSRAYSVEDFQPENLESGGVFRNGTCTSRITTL
T2 sequence (P31391 whole entry): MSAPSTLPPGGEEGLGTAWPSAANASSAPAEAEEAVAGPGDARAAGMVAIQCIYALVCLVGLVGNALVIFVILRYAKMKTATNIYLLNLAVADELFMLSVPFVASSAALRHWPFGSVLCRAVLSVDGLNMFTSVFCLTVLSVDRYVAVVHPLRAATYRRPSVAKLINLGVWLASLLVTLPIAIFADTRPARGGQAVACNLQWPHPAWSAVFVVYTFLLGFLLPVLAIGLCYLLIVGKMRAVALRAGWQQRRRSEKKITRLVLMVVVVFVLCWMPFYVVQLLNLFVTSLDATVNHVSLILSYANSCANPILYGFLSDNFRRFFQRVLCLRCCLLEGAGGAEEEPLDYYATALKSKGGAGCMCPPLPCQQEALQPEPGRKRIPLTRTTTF
Chain of SSTR2 (P30874 whole entry): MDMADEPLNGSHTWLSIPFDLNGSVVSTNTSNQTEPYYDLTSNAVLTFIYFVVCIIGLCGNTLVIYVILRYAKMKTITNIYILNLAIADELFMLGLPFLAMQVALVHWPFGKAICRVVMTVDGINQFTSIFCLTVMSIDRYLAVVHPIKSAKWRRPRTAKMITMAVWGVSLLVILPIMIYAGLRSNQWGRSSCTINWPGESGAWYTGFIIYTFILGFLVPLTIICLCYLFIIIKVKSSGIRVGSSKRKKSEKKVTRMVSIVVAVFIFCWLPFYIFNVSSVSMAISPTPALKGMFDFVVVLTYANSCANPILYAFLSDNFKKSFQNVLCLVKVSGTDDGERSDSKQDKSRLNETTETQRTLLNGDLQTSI
T1 sequence (P32745 whole entry, the tested form may be a part): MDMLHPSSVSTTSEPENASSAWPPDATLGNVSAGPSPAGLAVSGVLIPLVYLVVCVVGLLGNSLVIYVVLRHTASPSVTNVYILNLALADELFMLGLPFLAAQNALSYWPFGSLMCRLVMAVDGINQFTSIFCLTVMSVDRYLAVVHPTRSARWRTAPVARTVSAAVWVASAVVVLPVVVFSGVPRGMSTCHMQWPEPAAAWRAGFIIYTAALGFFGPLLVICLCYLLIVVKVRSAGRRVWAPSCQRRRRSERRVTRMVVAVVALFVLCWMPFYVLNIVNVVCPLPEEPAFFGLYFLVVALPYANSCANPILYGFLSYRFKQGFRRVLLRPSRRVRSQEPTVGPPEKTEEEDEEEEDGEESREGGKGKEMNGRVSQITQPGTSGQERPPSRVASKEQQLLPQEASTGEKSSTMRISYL

## C[C@@H](O)[C@@H]1NC(=O)[C@H](CCCCN)NC(=O)[C@@H](Cc2c[nH]c3ccccc23)NC(=O)[C@H](Cc2ccccc2)NC(=O)[C@@H](NC(=O)[C@H](CCCNC(=N)N)NC(=O)[C@H](N)Cc2ccccc2)CSSCCN(CC(N)=O)C(=O)[C@H](Cc2ccccc2)NC1=O [SEQ ID NO: 1, H-D-Phe^1-Arg^2-Cys^3-Phe^4-D-Trp^5-Lys^6-Thr^7-Phe^8-NTEG^9-NH^2 (cyclo 3-9)] (H-[dF]RCF[dW]KTF[N(2-mercaptoethyl)Gly]-NH2; disulfide 3-9)
SSTR3 [1]
  agonistic activity profile at SSTR3 (in words): superagonistic activity profile of SSTR3 above the native hormone SRIF-14
SSTR3 [2]
  affinity and selectivity to SSTR3 (in words): high affinity and selectivity to human cloned SSTR3 in the nanomolar range
  Hill coefficient (nH): 1.28
  Ki: 0.00015 µM
  IC50: 0.00043 µM
SSTR2
  Hill coefficient (nH): 1.25
  IC50: 0.39 µM
SSTR2; [5]
  Ki: 0.32 µM
SSTR1
  Hill coefficient (nH): 0.74
  IC50: 0.18 µM
SSTR1; [5]
  Ki: 0.15 µM
GH release; listed as SEQ ID NO.1
  inhibition of GH release: potent inhibitors of pituitary GH release
GH release; listed as SEQ ID NO:1
  inhibition of GH release: potent anti-secretagogue of growth hormone secretion
hSSTR-4
  Hill coefficient (nH): 1.24
  IC50: > 1 µM
hSSTR-4; [5]
  Ki: > 1 µM
SSTR5
  Hill coefficient (nH): 1.2
  IC50: 0.31 µM
SSTR5; [5]
  Ki: 0.17 µM
Insulin release
  effect on insulin release: did not affect insulin release

## C[C@@H](O)[C@@H]1NC(=O)[C@H](CCCCN)NC(=O)[C@@H](Cc2c[nH]c3ccccc23)NC(=O)[C@H](Cc2ccccc2)NC(=O)[C@@H](NC(=O)[C@H](CCCCN)NC(=O)[C@H](N)Cc2ccccc2)CSSCCN(CC(N)=O)C(=O)[C@H](Cc2ccccc2)NC1=O [SEQ ID NO: 2, H-D-Phe^1-Lys^2-Cys^3-Phe^4-D-Trp^5-Lys^6-Thr^7-Phe^8-NTEG^9-NH2 (cyclo 3-9)] (H-[dF]KCF[dW]KTF[N(2-mercaptoethyl)Gly]-NH2; disulfide 3-9)
[3]
  surface activity profile: favorable surface activity profile by means of reduced nonspecific binding
SSTR3 [2]
  affinity and selectivity to SSTR3 (in words): retained the binding affinity and selectivity to SSTR3
  Hill coefficient (nH): 1.09
  Ki: 0.00025 µM
  IC50: 0.00073 µM
SSTR2
  IC50: > 0.5 µM
SSTR1
  IC50: > 0.1 µM
GH release
  inhibition of GH release: potent inhibitors of pituitary GH release
hSSTR-4
  IC50: > 1 µM
SSTR5
  IC50: > 0.5 µM
Insulin release
  effect on insulin release: did not affect insulin release

## radiolabeled SEQ ID NO: 2 ([dF]KCF[dW]KTF[N(2-mercaptoethyl)Gly]-NH2; disulfide 3-9; not fully specified (N-terminus); also: radiolabeled)
[4]
  clearance from the kidneys: significantly higher clearance of the peptide from the kidneys in comparison to radiolabeled SEQ ID NO: 1
